Experimental data taken from patent publication US12612637B2, “Compositions and methods for DHFR tunable protein regulation” (Obsidian Therapeutics, Inc., priority 2019, dated 2026).
Where two headings read alike, the source gives them in different places.

Legend:
[1] = cited from earlier work; for Duration of action: in vivo
Jurkat cells = assay: FACS GFP expression of transduced Jurkat cells treated with DMSO, 2 μM or 50 μM TMP; format: cell-based; conditions: 2 μM TMP or 50 μM TMP, 24 hours
Experimental: Clones selected from the final library after 4 rounds of sorting were cloned into pLVX.AcGFP.P2A.mcherry constructs and transduced into Jurkat cells for further characterization of DD activity. Transduced Jurkat cells were plated using 500,000 cells per well (1 ml total volume per well in 24 well plate) in duplicate for each condition. Cells were treated with DMSO (control), 2 μM TMP or 50 μM trimethoprim (TMP) for 24 hours prior to fluorescent activated cell sorting (FACS). Cells were characterized by FACS to determine their levels of GFP in the presence and absence of TMP.

Molecule	Duration of action [1] [h]	Cmax ([1]; IV) [µM]	Cmax ([1]; PO) [µM]	GFP expression upon addition of TMP (Jurkat cells)
CN(Cc1cnc2nc(N)nc(N)c2n1)c1ccc(C(=O)N[C@@H](CCC(=O)O)C(=O)O)cc1 [Methotrexate]	>12			
COc1cc(Cc2cnc(N)nc2N)cc(OC)c1OC [Trimethoprim]	2 to 72	25	1	
hDHFR-045: hDHFR (Y122I) library clone cloned into pLVX.AcGFP.P2A.mcherry construct				higher levels of GFP expression upon addition of TMP
hDHFR-046: hDHFR (Y122I) library clone cloned into pLVX.AcGFP.P2A.mcherry construct				higher levels of GFP expression upon addition of TMP
